Source: ChEMBL document CHEMBL4177750, “Imidazopyrazinones (IPYs): Non-Quinolone Bacterial Topoisomerase Inhibitors Showing Partial Cross-Resistance with Quinolones” (J Med Chem, 2018)
In brackets after ≈: the same amount, converted by molar mass. Activity calls are given as the source filed them. The rule behind the calls is not given here.

Assays:
[1] = test system: Escherichia coli; assay: Antibacterial activity against ESBL producing Escherichia coli ATCC 35218 after 20 to 22 hrs; type: functional
[2] = test system: Escherichia coli; assay: Antibacterial activity against Escherichia coli K-12 MG1655 after 20 to 22 hrs; conditions: K-12 substr. MG1655
[3] = test system: Escherichia coli; assay: Antibacterial activity against tolC-deficient Escherichia coli K-12 MG1655 after 20 to 22 hrs; type: functional; conditions: K-12 substr. MG1655
[4] = test system: Escherichia coli; assay: Antibacterial activity against hyperpermeable Escherichia coli D22 harboring LpxC mutant after 20 to 22 hrs
[5] = test system: Pseudomonas aeruginosa; assay: Antibacterial activity against Pseudomonas aeruginosa PAO1 after 20 to 22 hrs; type: functional
[6] = test system: Pseudomonas aeruginosa; assay: Antibacterial activity against Pseudomonas aeruginosa PAO750 harboring mexAB-oprM/mexCD-oprJ/mexEF-oprN/mexXY/opmH/mexJK/pscC deletion mutant after 20 to 22 hrs; type: functional
[7] = test system: Staphylococcus aureus; assay: Antibacterial activity against methicillin-resistant Staphylococcus aureus ATCC 33592 after 20 to 22 hrs; type: functional
[8] = Cytotoxicity against human HepG2 cells assessed as decrease in cell viability after 40 hrs by Celltiter Glo assay
[9] = Solubility of the compound in water; type: physicochemical; conditions: buffer
[10] = Permeability across human Caco2 cells; type: ADME, cell-based; conditions: Caco-2
[11] = Metabolic stability in mouse liver microsomes; type: ADME, microsome
[12] = Metabolic stability in human liver microsomes; type: ADME, microsome
[13] = Drug degradation in DMSO solution in presence of mercaptoethanol measured within 1 hr; type: physicochemical; conditions: DMSO solution with mercaptoethanol; read-out: Drug degradation
[14] = Drug degradation in DMSO solution in presence of glutathione measured within 1 hr; type: physicochemical; conditions: DMSO solution with glutathione; read-out: Drug degradation
[15] = Chemical stability in pH 7.4 buffer solution; type: physicochemical
[16] = molecular target: hERG (KCNH2) (Homo sapiens, UniProt Q12809); assay: Inhibition of human ERG transfected in CHO cells at 10 uM by patch clamp method relative to control; type: cell-based; conditions: CHO cells transfected with human ERG
[17] = test system: Staphylococcus aureus; assay: Ratio of MIC for methicillin-resistant Staphylococcus aureus ATCC 33592 in presence of 50% mouse serum to MIC for methicillin-resistant Staphylococcus aureus ATCC 33592 in absence of 50% mouse serum; type: functional
[18] = test system: Staphylococcus aureus; assay: Ratio of MIC for methicillin-resistant Staphylococcus aureus ATCC 33592 in presence of 50% calf fetal serum to MIC for methicillin-resistant Staphylococcus aureus ATCC 33592 in absence of 50% calf fetal serum; type: functional
[19] = test system: Escherichia coli; assay: Antibacterial activity against tolC-deficient fluoroquinolones-sensitive Escherichia coli JC7623 clinical isolate harboring wild type DNA gyrase after 20 to 22 hrs
[20] = test system: Escherichia coli; assay: Antibacterial activity against tolC-deficient fluoroquinolones-resistant Escherichia coli W4753 clinical isolate harboring DNA gyrase S83L/D87N/ParC S80I/ParE S458A mutant after 20 to 22 hrs
[21] = molecular target: DNA gyrase (Escherichia coli, UniProt P0AES4+P0AES6)
Description: Inhibition of Escherichia coli DNA gyrase A2B2 using relaxed pNO1 as substrate

[22] = test system: Staphylococcus aureus; assay: Antibacterial activity against wild type Staphylococcus aureus RN4220 after 20 to 22 hrs; type: functional
[23] = test system: Staphylococcus aureus; assay: Antibacterial activity against Staphylococcus aureus RN4220 harboring GyrA D83N mutant after 20 to 22 hrs; type: functional
[24] = test system: Staphylococcus aureus; assay: Antibacterial activity against Staphylococcus aureus RN4220 harboring GyrA D83N/ParC D79N double mutant after 20 to 22 hrs; type: functional
[25] = test system: Staphylococcus aureus; assay: Antibacterial activity against Staphylococcus aureus RN4220 harboring GyrB D437N mutant after 20 to 22 hrs; type: functional
[26] = test system: Staphylococcus aureus; assay: Antibacterial activity against Staphylococcus aureus RN4220 harboring ParC S80F mutant after 20 to 22 hrs; type: functional
[27] = test system: Staphylococcus aureus; assay: Antibacterial activity against Staphylococcus aureus RN4220 harboring ParC S80F/GyrA S84L double mutant after 20 to 22 hrs; type: functional
[28] = test system: Klebsiella pneumoniae; assay: Antibacterial activity against wild type Klebsiella pneumoniae 1161486 after 20 to 22 hrs; type: functional
[29] = test system: Klebsiella pneumoniae; assay: Antibacterial activity against Klebsiella pneumoniae 1161486 harboring GyrA S83I mutant after 20 to 22 hrs; type: functional
[30] = test system: Klebsiella pneumoniae; assay: Antibacterial activity against Klebsiella pneumoniae 1161486 harboring GyrA S83I/ParC S80I double mutant after 20 to 22 hrs; type: functional
[31] = test system: Klebsiella pneumoniae; assay: Antibacterial activity against Klebsiella pneumoniae 1161486 harboring GyrA S83F/D87V/ParC S80I triple mutant after 20 to 22 hrs; type: functional
[32] = test system: Staphylococcus aureus; assay: Antibacterial activity against methicillin-resistant Staphylococcus aureus ATCC 33592 after 20 to 22 hrs in presence of 50% calf fetal serum; type: functional, organism-based
[33] = test system: Staphylococcus aureus; assay: Antibacterial activity against methicillin-resistant Staphylococcus aureus ATCC 33592 after 20 to 22 hrs in presence of 50% mouse serum; type: functional, organism-based
[34] = Drug metabolism in human liver microsomes at 5 uM after 20 mins in presence of NADPH; type: ADME, microsome; conditions: read-out: Drug metabolism
[35] = Drug metabolism in mouse liver microsomes at 5 uM after 20 mins in presence of NADPH; type: ADME, microsome; conditions: read-out: Drug metabolism
[36] = Drug metabolism in rat liver microsomes at 5 uM after 20 mins in presence of NADPH; type: ADME, microsome; conditions: read-out: Drug metabolism
[37] = Metabolic stability in mouse plasma at 1 uM after 4 hrs; type: ADME, cell-free; conditions: read-out: Stability
[38] = Metabolic stability in rat plasma at 1 uM after 4 hrs; type: ADME, cell-free; conditions: read-out: Stability
[39] = test system: L5178Y; assay: Genotoxicity in mouse L5178Y cells after 23 hrs in absence of S9 fraction by micronucleus test; type: toxicity, cell-based
[40] = test system: L5178Y; assay: Genotoxicity in mouse L5178Y cells after 3 hrs in presence of S9 fraction by micronucleus test; type: toxicity, cell-based; conditions: s9, 3 h

Chain of hERG (KCNH2) (Q12809 whole entry): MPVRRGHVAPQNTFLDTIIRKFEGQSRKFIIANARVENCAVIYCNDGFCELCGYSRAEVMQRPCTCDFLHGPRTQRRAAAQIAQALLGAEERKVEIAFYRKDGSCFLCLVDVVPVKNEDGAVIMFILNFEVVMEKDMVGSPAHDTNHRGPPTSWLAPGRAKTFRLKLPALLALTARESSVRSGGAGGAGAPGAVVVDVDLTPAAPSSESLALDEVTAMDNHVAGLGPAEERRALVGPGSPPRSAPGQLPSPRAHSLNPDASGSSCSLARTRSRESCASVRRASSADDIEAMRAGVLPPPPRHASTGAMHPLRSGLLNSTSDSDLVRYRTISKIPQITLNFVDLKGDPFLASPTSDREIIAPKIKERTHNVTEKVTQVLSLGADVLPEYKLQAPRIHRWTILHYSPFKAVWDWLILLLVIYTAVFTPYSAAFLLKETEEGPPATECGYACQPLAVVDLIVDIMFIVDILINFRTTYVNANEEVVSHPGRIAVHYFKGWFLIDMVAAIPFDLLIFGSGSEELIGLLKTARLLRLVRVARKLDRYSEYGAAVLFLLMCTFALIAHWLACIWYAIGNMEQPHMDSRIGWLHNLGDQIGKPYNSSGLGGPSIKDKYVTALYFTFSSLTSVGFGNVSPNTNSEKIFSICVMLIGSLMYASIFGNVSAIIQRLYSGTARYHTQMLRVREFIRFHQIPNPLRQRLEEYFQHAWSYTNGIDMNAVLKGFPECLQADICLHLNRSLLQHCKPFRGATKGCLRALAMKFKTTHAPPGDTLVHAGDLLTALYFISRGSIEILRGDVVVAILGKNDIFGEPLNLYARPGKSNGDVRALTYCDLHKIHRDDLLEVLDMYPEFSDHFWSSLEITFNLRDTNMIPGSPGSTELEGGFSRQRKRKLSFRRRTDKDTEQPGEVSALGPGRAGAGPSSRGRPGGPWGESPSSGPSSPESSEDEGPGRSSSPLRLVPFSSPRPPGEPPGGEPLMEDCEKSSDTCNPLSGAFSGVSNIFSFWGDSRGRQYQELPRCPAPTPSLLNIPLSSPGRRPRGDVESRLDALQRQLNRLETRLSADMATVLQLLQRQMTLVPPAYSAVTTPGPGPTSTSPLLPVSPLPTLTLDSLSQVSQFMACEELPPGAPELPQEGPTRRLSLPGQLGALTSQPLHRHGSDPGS

Row | SMILES | MIC [1] [µg/mL] | MIC [2] [µg/mL] | MIC [3] [µg/mL] | MIC [4] [µg/mL] | MIC [5] [µg/mL] | MIC [6] [µg/mL] | MIC [7] [µg/mL] | MIC [19] [µg/mL] | MIC [20] [µg/mL] | also measured
1 | CC(=O)Nc1ccc(/C=c2\c3ccccc3c3c2n2ccnc2c(=O)n3C)cc1 | > 64 | > 64 | < 0.125 | > 64 | > 64 | > 64 | 0.25 (≈ 0.654 µM) | 0.063 (≈ 0.165 µM) | 2 (≈ 5.23 µM) | CC50 at 40 h [8]: 8.4 µM; solubility [9]: Insoluble; permeability [10]: Impermeable; Stability [11]: Unstable; Stability [12]: Unstable; degraded at 1 h [13]: > 50%; degraded at 1 h [14]: > 50%; Stability [15]: Stable; inhibition at 10 µM [16]: > 50%; Ratio [17]: >32; Ratio [18]: >32
2 | Cn1cc(-c2ccc(NC(=O)Cc3ccc(Cl)cc3)cc2)n2ccnc2c1=O | > 32 | > 32 | 1 (≈ 2.55 µM) | 32 (≈ 81.5 µM) | > 32 | > 32 | > 32 | 0.125 (≈ 0.318 µM) | 4 (≈ 10.2 µM) | IC50 [21]: 6.35 µM
3 | O=c1c2ncnn2c2cc(F)c(-c3ccncc3)cc2n1C1CC1 | 32 (≈ 99.6 µM) | > 64 | < 0.125 | 32 (≈ 99.6 µM) | > 64 | 32 (≈ 99.6 µM) | 16 (≈ 49.8 µM) | – | – | –
4 | O=C(O)c1cn(C2CC2)c2cc(N3CCNCC3)c(F)cc2c1=O [CIPROFLOXACIN] | < 0.125 | – | < 0.125 | < 0.125 | – | < 0.125 | – | – | – | MIC [22]: 0.25 µg/mL (≈ 0.754 µM); MIC [23]: 0.25 µg/mL (≈ 0.754 µM); MIC [24]: 1 µg/mL (≈ 3.02 µM); MIC [25]: 0.25 µg/mL (≈ 0.754 µM); MIC [26]: 1 to 2 µg/mL (≈ 3.02 to 6.04 µM); MIC [27]: 64 µg/mL (≈ 193 µM); MIC [28]: < 0.063 µg/mL; MIC [29]: 1 µg/mL (≈ 3.02 µM); MIC [30]: 8 µg/mL (≈ 24.1 µM); MIC [31]: 8 µg/mL (≈ 24.1 µM)
5 | N[C@H]1CCN(c2cc3c(cc2F)c(=O)n(N)c(=O)n3C2CC2)C1 | 1 (≈ 3.13 µM) | 1 (≈ 3.13 µM) | < 0.125 | 0.5 (≈ 1.57 µM) | 32 (≈ 100 µM) | < 0.125 | 2 (≈ 6.26 µM) | – | – | –
6 | O=c1c2cncn2c2cc(F)c(-c3ccncc3)cc2n1C1CC1 | 64 (≈ 200 µM) | > 64 | 0.25 (≈ 0.78 µM) | 64 (≈ 200 µM) | > 64 | 32 (≈ 99.9 µM) | 64 (≈ 200 µM) | – | – | –
7 | Cn1c(=O)c2nccn2c2/c(=C/c3ccncc3)c3ccccc3c21 | > 64 | > 64 | < 0.125 | > 64 | > 64 | > 64 | > 64 | 0.016 (≈ 0.049 µM) | 0.25 (≈ 0.766 µM) | –
8 | O=c1c2nccn2c2cc(F)c(-c3ccncc3)cc2n1C1CC1 | 16 (≈ 49.9 µM) | 32 (≈ 99.9 µM) | < 0.125 | – | > 64 | 8 (≈ 25 µM) | 4 (≈ 12.5 µM) | 0.063 (≈ 0.197 µM) | 0.5 (≈ 1.56 µM) | Activity [32]: Active; Activity [33]: Active; metabolised at 20 min, 5 µM [34]: 13%; metabolised at 20 min, 5 µM [35]: 81%; metabolised at 20 min, 5 µM [36]: 68%; remaining at 4 h, 1 µM [37]: 80 to 120%; remaining at 4 h, 1 µM [38]: 80 to 120%; Activity [39]: Toxic; Activity [40]: Toxic
9 | O=c1c2nccn2c2cc(F)c(-c3ccccn3)cc2n1C1CC1 | > 64 | > 64 | 4 (≈ 12.5 µM) | > 64 | > 64 | > 64 | > 64 | – | – | –
10 | O=c1c2nccn2c2cc(F)c(-c3cccnc3)cc2n1C1CC1 | 16 (≈ 49.9 µM) | 32 (≈ 99.9 µM) | < 0.125 | 8 (≈ 25 µM) | > 64 | 4 (≈ 12.5 µM) | 64 (≈ 200 µM) | – | – | –
11 | N[C@H]1CCN(c2cc3c(cc2F)n2cncc2c(=O)n3C2CC2)C1 | 16 (≈ 48.9 µM) | 32 (≈ 97.8 µM) | 1 (≈ 3.05 µM) | 16 (≈ 48.9 µM) | > 64 | 1 (≈ 3.05 µM) | 16 (≈ 48.9 µM) | – | – | Activity [32]: Active; Activity [33]: Active
12 | CNc1cc(=O)n(C)c2c1/C(=C/c1ccncc1)c1ccccc1-2 | – | – | – | – | – | – | – | 1 (≈ 3.17 µM) | 2 (≈ 6.34 µM) | –
13 | N[C@H]1CCN(c2cc3c(cc2F)c2nc[nH]c2c(=O)n3C2CC2)C1 | 16 (≈ 48.9 µM) | 64 (≈ 196 µM) | 0.5 (≈ 1.53 µM) | 16 (≈ 48.9 µM) | 64 (≈ 196 µM) | 0.5 (≈ 1.53 µM) | 16 (≈ 48.9 µM) | – | – | Activity [32]: Active; Activity [33]: Active
